Laboratory results as given in article PMC4287394 (Clinical cancer research : an official journal of the …, 2014).
“And” between values parts separate entries of the source, which are not always exact repeats. Equal entries are not always repeated.

Test: Phase I safety: adverse events, DLT, MTD, RP2D
Type: in vivo, human
Conditions: for Patients with DLT (grade 3 maculopapular rash): 21/28 schedule
[1] = 15mg 21/28, 4 patients, all grades
[2] = 30mg 21/28, 3 patients, all grades
[3] = 45mg 21/28, 4 patients, all grades
[4] = 60mg 21/28, 4 patients, all grades
[5] = 80mg 21/28, 3 patients, all grades
[6] = 100mg 21/28, 5 patients, all grades
[7] = 130mg 21/28, 3 patients, all grades
[8] = 130mg 21/28, 3 patients, grade ≥3
[9] = 180mg 21/28, 3 patients, all grades
[10] = 245mg 21/28, 3 patients, all grades
[11] = 330mg 21/28, 7 patients, all grades
[12] = 330mg 21/28, 7 patients, grade ≥3
[13] = 330mg 28/28, 10 patients, all grades
[14] = 330mg 28/28, 10 patients, grade ≥3
[15] = 330mg once-daily 28/28, 10 patients
[16] = 340mg 28/28, 7 patients, all grades
[17] = 340mg 28/28, 7 patients, grade ≥3
[18] = 400mg 28/28, 1 patient, all grades
[19] = 450mg 21/28, 3 patients, all grades
[20] = 450mg 21/28, 3 patients, grade ≥3
[21] = all dose levels 21 or 28/28, 60 patients, all grades
[22] = all dose levels 21 or 28/28, 60 patients, grade ≥3

## CS(=O)(=O)N1CCN(Cc2cc3nc(-c4cccc5[nH]ncc45)nc(N4CCOCC4)c3s2)CC1 [pictilisib, 2-(1H-indazol-4-yl)-6-(4-methanesulfonyl-piperazin-1-ylmethyl)-4-morpholin-4-yl-t hieno[3,2-d]pyrimidine]
[1]
  Any treatment-related adverse event, no. of patients: 2
  Decreased appetite, no. of patients with treatment-related AE: 0
  Diarrhea, no. of patients with treatment-related AE: 0
  Dysgeusia, no. of patients with treatment-related AE: 1
  Fatigue, no. of patients with treatment-related AE: 0
  Nausea, no. of patients with treatment-related AE: 1
  Rash (all rash preferred terms), no. of patients with treatment-related AE: 0
  Vomiting, no. of patients with treatment-related AE: 0
  Xeroderma, no. of patients with treatment-related AE: 0
[2]
  Any treatment-related adverse event, no. of patients: 1
  Decreased appetite, no. of patients with treatment-related AE: 0
  Diarrhea, no. of patients with treatment-related AE: 0
  Dysgeusia, no. of patients with treatment-related AE: 0
  Fatigue, no. of patients with treatment-related AE: 0
  Nausea, no. of patients with treatment-related AE: 0
  Rash (all rash preferred terms), no. of patients with treatment-related AE: 0
  Vomiting, no. of patients with treatment-related AE: 0
  Xeroderma, no. of patients with treatment-related AE: 0
[3]
  Any treatment-related adverse event, no. of patients: 2
  Decreased appetite, no. of patients with treatment-related AE: 0
  Diarrhea, no. of patients with treatment-related AE: 2
  Dysgeusia, no. of patients with treatment-related AE: 1
  Fatigue, no. of patients with treatment-related AE: 0
  Nausea, no. of patients with treatment-related AE: 0
  Rash (all rash preferred terms), no. of patients with treatment-related AE: 0
  Vomiting, no. of patients with treatment-related AE: 0
  Xeroderma, no. of patients with treatment-related AE: 0
[4]
  Any treatment-related adverse event, no. of patients: 2
  Decreased appetite, no. of patients with treatment-related AE: 0
  Diarrhea, no. of patients with treatment-related AE: 1
  Dysgeusia, no. of patients with treatment-related AE: 0
  Fatigue, no. of patients with treatment-related AE: 0
  Nausea, no. of patients with treatment-related AE: 2
  Rash (all rash preferred terms), no. of patients with treatment-related AE: 0
  Vomiting, no. of patients with treatment-related AE: 2
  Xeroderma, no. of patients with treatment-related AE: 0
[5]
  Any treatment-related adverse event, no. of patients: 3
  Decreased appetite, no. of patients with treatment-related AE: 0
  Diarrhea, no. of patients with treatment-related AE: 1
  Dysgeusia, no. of patients with treatment-related AE: 1
  Fatigue, no. of patients with treatment-related AE: 2
  Nausea, no. of patients with treatment-related AE: 1
  Rash (all rash preferred terms), no. of patients with treatment-related AE: 0
  Vomiting, no. of patients with treatment-related AE: 1
  Xeroderma, no. of patients with treatment-related AE: 0
[6]
  Any treatment-related adverse event, no. of patients: 3
  Decreased appetite, no. of patients with treatment-related AE: 0
  Diarrhea, no. of patients with treatment-related AE: 1
  Dysgeusia, no. of patients with treatment-related AE: 0
  Fatigue, no. of patients with treatment-related AE: 1
  Nausea, no. of patients with treatment-related AE: 3
  Rash (all rash preferred terms), no. of patients with treatment-related AE: 0
  Vomiting, no. of patients with treatment-related AE: 0
  Xeroderma, no. of patients with treatment-related AE: 0
130mg
  Patients with grade 4 hyperglycemia: 1
[7]
  Any treatment-related adverse event, no. of patients: 1
  Decreased appetite, no. of patients with treatment-related AE: 0
  Diarrhea, no. of patients with treatment-related AE: 0
  Dysgeusia, no. of patients with treatment-related AE: 0
  Fatigue, no. of patients with treatment-related AE: 0
  Nausea, no. of patients with treatment-related AE: 0
  Rash (all rash preferred terms), no. of patients with treatment-related AE: 0
  Vomiting, no. of patients with treatment-related AE: 0
  Xeroderma, no. of patients with treatment-related AE: 0
[8]
  Any treatment-related adverse event, no. of patients: 1
  Decreased appetite, no. of patients with treatment-related AE: 0
  Diarrhea, no. of patients with treatment-related AE: 0
  Dysgeusia, no. of patients with treatment-related AE: 0
  Fatigue, no. of patients with treatment-related AE: 0
  Nausea, no. of patients with treatment-related AE: 0
  Rash (all rash preferred terms), no. of patients with treatment-related AE: 0
  Vomiting, no. of patients with treatment-related AE: 0
  Xeroderma, no. of patients with treatment-related AE: 0
[9]
  Any treatment-related adverse event, no. of patients: 2
  Decreased appetite, no. of patients with treatment-related AE: 1
  Diarrhea, no. of patients with treatment-related AE: 1
  Dysgeusia, no. of patients with treatment-related AE: 1
  Fatigue, no. of patients with treatment-related AE: 1
  Nausea, no. of patients with treatment-related AE: 0
  Rash (all rash preferred terms), no. of patients with treatment-related AE: 1
  Vomiting, no. of patients with treatment-related AE: 0
  Xeroderma, no. of patients with treatment-related AE: 0
[10]
  Any treatment-related adverse event, no. of patients: 3
  Decreased appetite, no. of patients with treatment-related AE: 1
  Diarrhea, no. of patients with treatment-related AE: 2
  Dysgeusia, no. of patients with treatment-related AE: 0
  Fatigue, no. of patients with treatment-related AE: 1
  Nausea, no. of patients with treatment-related AE: 1
  Rash (all rash preferred terms), no. of patients with treatment-related AE: 0
  Vomiting, no. of patients with treatment-related AE: 0
  Xeroderma, no. of patients with treatment-related AE: 1
[11]
  Any treatment-related adverse event, no. of patients: 7
  Decreased appetite, no. of patients with treatment-related AE: 2
  Diarrhea, no. of patients with treatment-related AE: 3
  Dysgeusia, no. of patients with treatment-related AE: 1
  Fatigue, no. of patients with treatment-related AE: 4
  Nausea, no. of patients with treatment-related AE: 4
  Rash (all rash preferred terms), no. of patients with treatment-related AE: 4
  Vomiting, no. of patients with treatment-related AE: 3
  Xeroderma, no. of patients with treatment-related AE: 2
[12]
  Any treatment-related adverse event, no. of patients: 2
  Decreased appetite, no. of patients with treatment-related AE: 0
  Diarrhea, no. of patients with treatment-related AE: 0
  Dysgeusia, no. of patients with treatment-related AE: 0
  Fatigue, no. of patients with treatment-related AE: 0
  Nausea, no. of patients with treatment-related AE: 0
  Rash (all rash preferred terms), no. of patients with treatment-related AE: 1
  Vomiting, no. of patients with treatment-related AE: 0
  Xeroderma, no. of patients with treatment-related AE: 0
[13]
  Any treatment-related adverse event, no. of patients: 10
  Decreased appetite, no. of patients with treatment-related AE: 6
  Diarrhea, no. of patients with treatment-related AE: 7
  Dysgeusia, no. of patients with treatment-related AE: 5
  Fatigue, no. of patients with treatment-related AE: 6
  Nausea, no. of patients with treatment-related AE: 9
  Rash (all rash preferred terms), no. of patients with treatment-related AE: 4
  Vomiting, no. of patients with treatment-related AE: 3
  Xeroderma, no. of patients with treatment-related AE: 4
[14]
  Any treatment-related adverse event, no. of patients: 2
  Decreased appetite, no. of patients with treatment-related AE: 0
  Diarrhea, no. of patients with treatment-related AE: 1
  Dysgeusia, no. of patients with treatment-related AE: 0
  Fatigue, no. of patients with treatment-related AE: 0
  Nausea, no. of patients with treatment-related AE: 0
  Rash (all rash preferred terms), no. of patients with treatment-related AE: 2
  Vomiting, no. of patients with treatment-related AE: 0
  Xeroderma, no. of patients with treatment-related AE: 1
[15]
  Patients with grade 1 or 2 rash: 2
  Patients with grade 3 rash (after the DLT-defining window): 2
330mg once-daily, 7 patients
  Patients with DLT (grade 3 maculopapular rash): 1 of 7 and 1
340mg
  Patients with grade 3 pneumonitis: 1
[16]
  Any treatment-related adverse event, no. of patients: 6
  Decreased appetite, no. of patients with treatment-related AE: 3
  Diarrhea, no. of patients with treatment-related AE: 1
  Dysgeusia, no. of patients with treatment-related AE: 2
  Fatigue, no. of patients with treatment-related AE: 3
  Nausea, no. of patients with treatment-related AE: 4
  Rash (all rash preferred terms), no. of patients with treatment-related AE: 1
  Vomiting, no. of patients with treatment-related AE: 4
  Xeroderma, no. of patients with treatment-related AE: 0
[17]
  Any treatment-related adverse event, no. of patients: 2
  Decreased appetite, no. of patients with treatment-related AE: 0
  Diarrhea, no. of patients with treatment-related AE: 0
  Dysgeusia, no. of patients with treatment-related AE: 0
  Fatigue, no. of patients with treatment-related AE: 0
  Nausea, no. of patients with treatment-related AE: 0
  Rash (all rash preferred terms), no. of patients with treatment-related AE: 0
  Vomiting, no. of patients with treatment-related AE: 0
  Xeroderma, no. of patients with treatment-related AE: 0
[18]
  Any treatment-related adverse event, no. of patients: 1
  Decreased appetite, no. of patients with treatment-related AE: 0
  Diarrhea, no. of patients with treatment-related AE: 0
  Dysgeusia, no. of patients with treatment-related AE: 0
  Fatigue, no. of patients with treatment-related AE: 1
  Nausea, no. of patients with treatment-related AE: 1
  Rash (all rash preferred terms), no. of patients with treatment-related AE: 1
  Vomiting, no. of patients with treatment-related AE: 0
  Xeroderma, no. of patients with treatment-related AE: 0
[19]
  Any treatment-related adverse event, no. of patients: 3
  Decreased appetite, no. of patients with treatment-related AE: 1
  Diarrhea, no. of patients with treatment-related AE: 0
  Dysgeusia, no. of patients with treatment-related AE: 1
  Fatigue, no. of patients with treatment-related AE: 2
  Nausea, no. of patients with treatment-related AE: 2
  Rash (all rash preferred terms), no. of patients with treatment-related AE: 3
  Vomiting, no. of patients with treatment-related AE: 2
  Xeroderma, no. of patients with treatment-related AE: 1
[20]
  Any treatment-related adverse event, no. of patients: 2
  Decreased appetite, no. of patients with treatment-related AE: 0
  Diarrhea, no. of patients with treatment-related AE: 0
  Dysgeusia, no. of patients with treatment-related AE: 0
  Fatigue, no. of patients with treatment-related AE: 0
  Nausea, no. of patients with treatment-related AE: 0
  Rash (all rash preferred terms), no. of patients with treatment-related AE: 2
  Vomiting, no. of patients with treatment-related AE: 0
  Xeroderma, no. of patients with treatment-related AE: 0
450mg once-daily 21/28
  Time of presentation of DLT rash after commencement of daily dosing: approximately 2 weeks
  Time to spontaneous resolution of DLT rash after treatment discontinuation: 2 weeks
450mg once-daily 21/28, 2 patients
  Body surface area covered by DLT maculopapular rash: 70-80%
450mg once-daily, 3 patients
  Patients with DLT (grade 3 maculopapular rash): 2 of 3 and 2
28/28 schedule (330mg, 340mg, 400mg)
  DLT on continuous schedule: no DLT was observed
All 60 patients
  Treatment-related deaths: no treatment-related deaths
[21]
  Decreased appetite, no. of patients with treatment-related AE: 14
  Fatigue, no. of patients with treatment-related AE: 21
  Nausea, no. of patients with treatment-related AE: 28
  Rash (all rash preferred terms), no. of patients with treatment-related AE: 14
  Vomiting, no. of patients with treatment-related AE: 15
  Xeroderma, no. of patients with treatment-related AE: 8
[22]
  Any treatment-related adverse event, no. of patients: 9
  Decreased appetite, no. of patients with treatment-related AE: 0
  Diarrhea, no. of patients with treatment-related AE: 1
  Dysgeusia, no. of patients with treatment-related AE: 0
  Fatigue, no. of patients with treatment-related AE: 0
  Nausea, no. of patients with treatment-related AE: 0
  Rash (all rash preferred terms), no. of patients with treatment-related AE: 5
  Vomiting, no. of patients with treatment-related AE: 0
  Xeroderma, no. of patients with treatment-related AE: 1
Continuous once-daily oral dosing
  Recommended Phase II dose (RP2D): 330 mg
Up to 330mg (21/28 schedule)
  Tolerability: well-tolerated
Whole study
  Patients with grade ≥3 hyperglycemia: 1
